Assay results: patent publication US8669232B2, “Flavonol compounds, a bioactive extract/fraction from Ulmus wallichiana and its compounds for prevention for treatment of osteo-health related disorders” (Council of Scientific & Industrial Research, priority 2008, dated 2014)

What was measured:
[1] = tested on: growing female Sprague Dawley rats; assay: Attainment of peak bone mass: BMD by DEXA in growing rats; type: in vivo; settings: 21 days old female rats, 5 mg/kg body weight oral daily, 30 days; vs vehicle
Description: 21 days old female Sprague Dawley rats were divided into three groups, each group consisted of 10 rats; control (vehicle treated), 750 mg/kg C002 crude extract, and 50 mg/kg 914/F004. Vehicle or treatments were given daily by oral route in gum acacia for 30 days. After completion of 30 days the rats were euthanized and there bones (femur, tibia, L1-L4 vertebra) were collected.
Bone Mineral Density of Femur (Global, head, neck), tibia (global, head, tibio-fibular separation point) and lumber vertebra (LV1, LV2, LV3, LV4) was determined by DEXA.
Female Sprague Dawley rats at weaning (˜21 d old) were divided into two groups consisting of 10 rats per group. Control rats were treated with gum acacia (vehicle) and the other group was treated with K058 at 5 mg/kg body weight. All the control and treated rats were given K058 or vehicle daily by oral route in gum acacia for 30 days. After completion of 30 days the rats were euthanized and their bones (femur, tibia, L1-L4 vertebra) were collected.
Bone mineral density of femur (global, head, neck), tibia (global, head, tibio-fibular separation point) and lumber vertebra (LV1, LV2, LV3, LV4) was determined by DEXA.

calvarial osteoblasts = assay: Semi-quantitative RT-PCR of osteogenic genes; type: cell-based, neonatal Sprague-Dawley rats; settings: 10^−7 M
Description: Neonatal rat calvarial cell cultures are prepared as described previously (Chattopadhyay et al., Endocrinology 145:3451-62, 2004) using slight modification. Briefly, for calvarial osteoblast cultures, frontal and parietal bones from neonatal Sprague-Dawley rats (1-3 day old) were digested in 0.1% collagenase/0.1% dispase in α-MEM to obtain 5 sequential digests. The second through fifth digests are combined and grown to confluence at 37° C. and 5% CO2 in air in α-MEM, supplemented with 10% fetal bovine serum (FBS), 2 mM glutamine, 100 U/ml penicillin-streptomycin, non-essential amino acid solution and sodium pyruvate.
RT-PCR was performed for assessing mRNA levels of Col1 (collagen type I), Cbfa-1 (Core binding factor-1), ALP (Alkaline phosphatase), OPN (osteopontin), BMP 2 (Bone morphogenic protein 2), OPG (Osteoprotegrin), and OCN (Osteocalcin). The house-keeping gene GAPDH (Glyceraldehyde-3-phosphate dehydrogenase) was used as the internal control in this study. RNAs were extracted at 0-, 4-, 8-, 12-, 24-, and 48 h. Total RNA was extracted using TRIzol reagent (Invitrogen). A single step RT PCR kit (Qaigen) was used to perform RT-PCR according to the manufacturer's instructions. Following gene specific primer pairs were used (Table 2).

O=C1c2c(cc(O)c([C@@H]3OC(CO)[C@@H](O)[C@H](O)C3O)c2O)O[C@@H](c2ccc(O)c(O)c2)[C@@H]1O (stereo partly drawn) [K058, (2S,3S)-(+)-3′,4′,5,7-tetrahydroxydihydroflavonol-6-C-β-D-glucopyranoside]
increased: mRNA levels of OPG (Osteoprotegrin) (calvarial osteoblasts) | mRNA levels of Alkaline phosphatase (ALP) (calvarial osteoblasts; 0 to 48 h) | mRNA levels of bone morphogenic protein-2 (BMP-2) (calvarial osteoblasts; 0 to 48 h) | mRNA levels of collagen I (COL-1) (calvarial osteoblasts; 0 to 48 h) | mRNA levels of core binding factor-1 (Cbfa-1) (calvarial osteoblasts; 0 to 48 h) | mRNA levels of osteocalcin (OCN) (calvarial osteoblasts; 0 to 48 h)
significantly more: BMD shaft region of femur [1]
